Structures can show the parent of a compound that is named as a salt.
How the values were obtained:
human B1R receptor = target: T1, human B1R receptor (Homo sapiens, UniProt P46663); experiment: Functional study on the bradykinin receptor 1 (B1R), FLIPR Ca2+ assay, hB1R cells; format: cell-based; settings: CHO-K1, test substance 10 μM, agonist Lys-Des-Arg9-bradykinin 0.5 nM, % inhibition compared with the maximum achievable inhibition, read-out: B1R Antagonism, human [10 μM] % Inhibition
T1 construct: host or cells: CHO K1 cells (Chinese hamster ovary), stably transfected
T1 sequence (P46663 1-353): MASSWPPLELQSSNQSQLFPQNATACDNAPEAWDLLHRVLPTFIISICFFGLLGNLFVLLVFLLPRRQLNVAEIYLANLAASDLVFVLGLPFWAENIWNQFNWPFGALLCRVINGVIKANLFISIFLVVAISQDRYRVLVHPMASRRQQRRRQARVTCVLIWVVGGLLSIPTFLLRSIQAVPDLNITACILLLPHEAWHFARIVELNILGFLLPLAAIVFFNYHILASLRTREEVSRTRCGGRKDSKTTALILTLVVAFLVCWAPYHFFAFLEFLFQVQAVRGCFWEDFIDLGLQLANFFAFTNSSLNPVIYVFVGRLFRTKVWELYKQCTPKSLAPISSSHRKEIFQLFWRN
Outline: (§1)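 CHO K1 cells stably expressing human or rat B1R, Fluo-4-loaded; test compound 10 μM added first (activation % vs agonist), then after 10 min 0.5 nM Lys-Des-Arg9-bradykinin (human) or 100 nM Des-Arg9-bradykinin (rat). Ca2+ peak fluorescence by FLIPR; % inhibition relative to maximum achievable inhibition.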

B1R receptor of the rat = target: T2, B1R receptor of the rat (Rattus norvegicus, UniProt P97583); experiment: Functional study on the bradykinin receptor 1 (B1R), FLIPR Ca2+ assay, rB1R cells; format: cell-based; settings: CHO-K1, test substance 10 μM, agonist Des-Arg9-bradykinin 100 nM, % inhibition compared with the maximum achievable inhibition, read-out: B1R Antagonism, rat [10 μM] % Inhibition
T2 construct: host or cells: CHO K1 cells (Chinese hamster ovary), stably transfected
T2 sequence (P97583 1-337): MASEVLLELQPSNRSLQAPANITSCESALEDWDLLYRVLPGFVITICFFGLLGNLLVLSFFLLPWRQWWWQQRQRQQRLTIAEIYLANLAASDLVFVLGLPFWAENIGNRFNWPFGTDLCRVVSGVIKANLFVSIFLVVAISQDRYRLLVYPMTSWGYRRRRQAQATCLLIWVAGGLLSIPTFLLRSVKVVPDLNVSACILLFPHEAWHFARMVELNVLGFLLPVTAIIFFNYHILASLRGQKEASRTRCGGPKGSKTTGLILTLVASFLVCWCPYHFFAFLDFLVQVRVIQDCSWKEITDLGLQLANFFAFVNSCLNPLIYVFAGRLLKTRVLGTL
Outline: as §1

SMILES | inhibition at 10 µM (human B1R receptor) | inhibition at 10 µM (B1R receptor of the rat)
Cc1cc(C)c(S(=O)(=O)N2CCCCC2COCC(=O)N2CCN(CC3CCN(C)CC3)CC2)c(C)c1 (stereo not shown) [Example 232, 2-((1-(mesitylsulfonyl)piperidin-2-yl)methoxy)-1-(4-((1-methylpiperidin-4-yl)methyl)piperazin-1-yl)ethanone] | 102% | 90%
COc1cc(C)c(S(=O)(=O)N2CCCCC2COCC(=O)N(C)CCC2CCC(N(C)C)CC2)c(C)c1 (stereo not shown) [Example 209, N-(2-(4-(dimethylamino)cyclohexyl)ethyl)-2-((1-(4-methoxy-2,6-dimethylphenylsulfonyl)piperidin-2-yl)methoxy)-N-methylacetamide] | 104% | 99.9%
O=C(COCC1CCCCN1S(=O)(=O)c1c(Cl)cccc1Cl)N1CCN(c2ccncc2)CC1 (stereo not shown) [Example 283, 2-((1-(2,6-dichlorophenylsulfonyl)piperidin-2-yl)methoxy)-1-(4-(pyridin-4-yl)piperazin-1-yl)ethanone] | 103% | 92.9%
O=C(COCC1CCCCN1S(=O)(=O)c1c(Cl)cccc1Cl)N1CCN(c2ccc(F)cc2)CC1 (stereo not shown) [Example 318, 2-((1-(2,6-dichlorophenylsulfonyl)piperidin-2-yl)methoxy)-1-(4-(4-fluorophenyl)piperazin-1-yl)ethanone] | 102% | 102%
COc1cc(C)c(S(=O)(=O)N2CCCCC2COCC(=O)N2CCN(c3ccc4c(N5CCCC5)ncnc4c3)CC2)c(C)c1 (stereo not shown) [Example 168, 2-((1-(4-methoxy-2,6-dimethylphenylsulfonyl)piperidin-2-yl)methoxy)-1-(4-(4-(pyrrolidin-1-yl)quinazolin-7-yl)piperazin-1-yl)ethanone] | 93.8% | 98.4%
CN1CCN(C2CCN(C(=O)COCC3Cc4ccccc4CN3S(=O)(=O)c3ccc(Cl)cc3Cl)CC2)CC1 (stereo not shown) [Example 233, 2-((2-(2,4-dichlorophenylsulfonyl)-1,2,3,4-tetrahydroisoquinolin-3-yl)methoxy)-1-(4-(4-methylpiperazin-1-yl)piperidin-1-yl)ethanone] | 102% | 86.7%
Cc1cc(F)cc(C)c1S(=O)(=O)N1CCCCC1COCC(=O)N1CCN(C2CCN(C)CC2)CC1 (stereo not shown) [Example 169, 2-((1-(4-fluoro-2,6-dimethylphenylsulfonyl)piperidin-2-yl)methoxy)-1-(4-(1-methylpiperidin-4-yl)piperazin-1-yl)ethanone dihydrochloride] | 100% | 101%
CN1CCC(N2CCN(C(=O)COCC3Cc4ccccc4CN3S(=O)(=O)c3ccc4ccccc4c3)CC2)CC1 (stereo not shown) [Example 178, 1-(4-(1-methylpiperidin-4-yl)piperazin-1-yl)-2-((2-(naphthalen-2-ylsulfonyl)-1,2,3,4-tetrahydroisoquinolin-3-yl)methoxy)ethanone dihydrochloride] | 102% | 99.8%
CN1CCN(Cc2ccc(CNC(=O)COCC3CCCCN3S(=O)(=O)c3c(Cl)cc(Cl)cc3Cl)cc2)CC1 (stereo not shown) [Example 15, N-[4-(4-methyl-piperazin-1-ylmethyl)-benzyl]-2-[1-(2,4,6-trichloro-phenylsulfonyl)-piperidin-2-ylmethoxy]-acetamide] | 96% | 92.5%

Next, values leading:

inhibition at 10 µM (human B1R receptor) | inhibition at 10 µM (B1R receptor of the rat) | SMILES
102% | 98.8% | COc1cc(C)c(S(=O)(=O)N2CCCCC2COCC(=O)Nc2ccc(-n3ccnc3C)cc2)c(C)c1 (stereo not shown) [Example 427, 2-((1-(4-methoxy-2,6-dimethylphenylsulfonyl)piperidin-2-yl)methoxy)-N-(4-(2-methyl-1H-imidazol-1-yl)phenyl)acetamide]
85.2% | 99% | COc1cc(C)c(S(=O)(=O)N2CCCCC2COCC(=O)N2CCN(c3ccc(C(F)(F)F)cn3)CC2)c(C)c1 (stereo not shown) [Example 514, 2-((1-(4-methoxy-2,6-dimethylphenylsulfonyl)piperidin-2-yl)methoxy)-1-(4-(5-(trifluoromethyl)pyridin-2-yl)piperazin-1-yl)ethanone]
67.9% | 102% | COc1cc(C)c(S(=O)(=O)N2CCCCC2COCC(=O)N(C)CCN(C)C)c(C)c1 (stereo not shown) [Example 379, N-(2-(dimethylamino)ethyl)-2-((1-(4-methoxy-2,6-dimethylphenylsulfonyl)piperidin-2-yl)methoxy)-N-methylacetamide]
49.2% | 107% | COc1cc(C)c(S(=O)(=O)N2CCCCC2COCC(=O)Nc2cc(-c3cccc(F)c3)[nH]n2)c(C)c1 (stereo not shown) [Example 542, N-(5-(3-fluorophenyl)-1H-pyrazol-3-yl)-2-((1-(4-methoxy-2,6-dimethylphenylsulfonyl)piperidin-2-yl)methoxy)acetamide]
-10.1% | 102% | COc1cc(C)c(S(=O)(=O)N2CCCCC2COCC(=O)N(Cc2ccccc2)c2cc(C)ccn2)c(C)c1 (stereo not shown) [Example 507, N-benzyl-2-((1-(4-methoxy-2,6-dimethylphenylsulfonyl)piperidin-2-yl)methoxy)-N-(4-methylpyridin-2-yl)acetamide]
12.6% | 100% | COc1cc(C)c(S(=O)(=O)N2CCCCC2COCC(=O)Nc2cccnc2N2CCOCC2)c(C)c1 (stereo not shown) [Example 395, 2-((1-(4-methoxy-2,6-dimethylphenylsulfonyl)piperidin-2-yl)methoxy)-N-(2-morpholinopyridin-3-yl)acetamide]
44% | 104% | COc1cc(C)c(S(=O)(=O)N2CCCC2COCC(=O)N2CCN(Cc3c(C)cc(C)cc3C)CC2)c(C)c1 (stereo not shown) [Example 351, 2-((1-(4-methoxy-2,6-dimethylphenylsulfonyl)pyrrolidin-2-yl)methoxy)-1-(4-(2,4,6-trimethylbenzyl)piperazin-1-yl)ethanone]
103% | 103% | CN(C)CCCN1CCN(C(=O)COCC2CCCN2S(=O)(=O)c2c(Cl)cccc2Cl)CC1 (stereo not shown) [Example 566, 2-((1-(2,6-dichlorophenylsulfonyl)pyrrolidin-2-yl)methoxy)-1-(4-(3-(dimethylamino)propyl)piperazin-1-yl)ethanone]
103% | 102% | COc1cc(C)c(S(=O)(=O)N2CCCCC2COCC(=O)N2CCCN(Cc3ccccc3)CC2)c(C)c1 (stereo not shown) [Example 362, 1-(4-benzyl-1,4-diazepan-1-yl)-2-((1-(4-methoxy-2,6-dimethylphenylsulfonyl)piperidin-2-yl)methoxy)ethanone]
0.38% | 101% | COc1cc(C)c(S(=O)(=O)N2CCCCC2COCC(=O)Nc2nc3ccccc3n2C)c(C)c1 (stereo not shown) [Example 371, 2-((1-(4-methoxy-2,6-dimethylphenylsulfonyl)piperidin-2-yl)methoxy)-N-(1-methyl-1H-benzo[d]imidazol-2-yl)acetamide]
100% | 101% | COc1cc(C)c(S(=O)(=O)N2CCCCC2COCC(=O)Nc2ccc(CN3CCCCC3)cc2)c(C)c1 (stereo not shown) [Example 419, 2-((1-(4-methoxy-2,6-dimethylphenylsulfonyl)piperidin-2-yl)methoxy)-N-(4-(piperidin-1-ylmethyl)phenyl)acetamide]
